Experimental data as given in PubChem BioAssay AID248 (DTP/NCI, 2004).
Where “and” joins values, the source holds several entries; their conditions need not be identical. Equal values may be shown once. Toxic doses and inconclusive results are not listed. Rule as the data show it: active = T/C of 150% or more; inactive = T/C below 125%.

System: L1210 leukemia ip in BDF1 mice, survival T/C
Assay: NCI In Vivo Anticancer Drug Screen. Data for tumor model L1210 Leukemia (intraperitoneal) in B6D2F1 (BDF1) mice
Details: endpoint: mean survival time, higher = longer survival
In short: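 Each compound was tested against a transplantable tumor grown in mice. The endpoint was survival, with treated animals benchmarked against vehicle controls as a simple ratio.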

[1] = dose: 100.0 mg/kg/injection, schedule: Q01DX009 (ip), vehicle: saline
[2] = dose: 200.0 mg/kg/injection, schedule: Q01DX009 (ip), vehicle: saline
[3] = dose: 400.0 mg/kg/injection, schedule: Q01DX009 (ip), vehicle: saline
[4] = dose: 100.0 mg/kg/injection, schedule: Q01DX001 (ip), vehicle: saline
[5] = dose: 200.0 mg/kg/injection, schedule: Q01DX001 (ip), vehicle: saline
[6] = dose: 400.0 mg/kg/injection, schedule: Q01DX001 (ip), vehicle: saline
[7] = dose: 100.0 mg/kg/injection, schedule: Q01DX009 (ip), vehicle: saline with Tween-80
[8] = dose: 200.0 mg/kg/injection, schedule: Q01DX009 (ip), vehicle: saline with Tween-80
[9] = dose: 400.0 mg/kg/injection, schedule: Q01DX009 (ip), vehicle: saline with Tween-80
[10] = dose: 100.0 mg/kg/injection, schedule: Q04DX002 (ip), vehicle: Klucel (hydroxypropylcellulose) (HPC)
[11] = dose: 200.0 mg/kg/injection, schedule: Q04DX002 (ip), vehicle: Klucel (hydroxypropylcellulose) (HPC)
[12] = dose: 400.0 mg/kg/injection, schedule: Q04DX002 (ip), vehicle: Klucel (hydroxypropylcellulose) (HPC)

Measured: T/C

CCOC(=O)NO
inactive: dose: 27.0 mg/kg/injection, schedule: Q03HX024 (ip), vehicle: saline 95 % of control | dose: 40.0 mg/kg/injection, schedule: Q03HX024 (ip), vehicle: saline 97 % of control | dose: 50.0 mg/kg/injection, schedule: Q01DX Z (ip), vehicle: carboxymethylcellulose (CMC) 93 % of control | dose: 60.0 mg/kg/injection, schedule: Q03HX024 (ip), vehicle: saline 100 % of control | dose: 90.0 mg/kg/injection, schedule: Q03HX024 (ip), vehicle: saline 100 % of control | [1] 97 % of control and 98 % of control | dose: 100.0 mg/kg/injection, schedule: Q01DX Z (ip), vehicle: carboxymethylcellulose (CMC) 109 % of control | dose: 120.0 mg/kg/injection, schedule: Q01DX009 (ip), vehicle: saline 110 % of control | dose: 135.0 mg/kg/injection, schedule: Q03HX024 (ip), vehicle: saline 124 % of control | dose: 180.0 mg/kg/injection, schedule: Q01DX009 (ip), vehicle: saline 119 % of control | [2] 95 % of control and 100 % of control | [3] 102 % of control and 107 % of control | dose: 600.0 mg/kg/injection, schedule: Q01DX009 (ip), vehicle: saline 117 % of control

CCCC(=O)OC(OC(=O)CCC)c1ccco1
inactive: [4] 92 % of control | [5] 109 % of control | [6] 109 % of control

CC1CN(Cc2ccccc2)CC(C)N1 (stereo unspecified)
inactive: dose: 25.0 mg/kg/injection, schedule: Q01DX009 (ip), vehicle: water 95 % of control | dose: 50.0 mg/kg/injection, schedule: Q01DX009 (ip), vehicle: water 95 % of control | dose: 100.0 mg/kg/injection, schedule: Q01DX009 (ip), vehicle: water 104 % of control | dose: 100.0 mg/kg/injection, schedule: Q04DX003 (ip), vehicle: water 110 % of control | dose: 200.0 mg/kg/injection, schedule: Q04DX003 (ip), vehicle: water 115 % of control

O=C(O)Cc1ccc(Cl)cc1
inactive: dose: 75.0 mg/kg/injection, schedule: Q04DX003 (ip), vehicle: saline with Tween-80 93 % of control | dose: 100.0 mg/kg/injection, schedule: Q01DX001 (ip), vehicle: saline with Tween-80 98 % of control | dose: 150.0 mg/kg/injection, schedule: Q04DX003 (ip), vehicle: saline with Tween-80 96 % of control | dose: 200.0 mg/kg/injection, schedule: Q01DX001 (ip), vehicle: saline with Tween-80 95 % of control | dose: 300.0 mg/kg/injection, schedule: Q04DX003 (ip), vehicle: saline with Tween-80 87 % of control | dose: 400.0 mg/kg/injection, schedule: Q01DX001 (ip), vehicle: saline with Tween-80 91 % of control

N#CC(C#N)=Cc1ccc2ccccc2c1Br
inactive: [7] 96 % of control | [8] 94 % of control | [9] 90 % of control

CCCCOC(=O)CNC(=O)c1ccc([N+](=O)[O-])s1
inactive: dose: 50.0 mg/kg/injection, schedule: Q01DX005 (ip), vehicle: saline 102 % of control | dose: 100.0 mg/kg/injection, schedule: Q01DX005 (ip), vehicle: saline 98 % of control | dose: 400.0 mg/kg/injection, schedule: Q01DX005 (ip), vehicle: saline 91 % of control

Nc1ncnc2nn(C3OC(CO)C(O)C3O)nc12 (stereo unspecified)
inactive: dose: 75.0 mg/kg/injection, schedule: Q01DX001 (ip), vehicle: saline 105 % of control | dose: 150.0 mg/kg/injection, schedule: Q01DX001 (ip), vehicle: saline 105 % of control | dose: 300.0 mg/kg/injection, schedule: Q01DX001 (ip), vehicle: saline 108 % of control

O=C(Nc1ccccn1)Nc1ccc([N+](=O)[O-])cc1[N+](=O)[O-]
inactive: [10] 108 % of control | [11] 104 % of control | [12] 97 % of control

O=C1CCC(=O)N1CC(O)COc1ccc(Cl)cc1 (stereo unspecified)
inactive: [7] 96 % of control | [8] 101 % of control | [9] 104 % of control

[N-]=[N+]=C1C(=O)NN=C1c1ccccc1
inactive: dose: 20.0 mg/kg/injection, schedule: Q04DX003 (ip), vehicle: Klucel (hydroxypropylcellulose) (HPC) 92 % of control | dose: 25.0 mg/kg/injection, schedule: Q01DX009 (ip), vehicle: Klucel (hydroxypropylcellulose) (HPC) 98 % of control | dose: 40.0 mg/kg/injection, schedule: Q04DX003 (ip), vehicle: Klucel (hydroxypropylcellulose) (HPC) 101 % of control | dose: 50.0 mg/kg/injection, schedule: Q01DX009 (ip), vehicle: Klucel (hydroxypropylcellulose) (HPC) 96 % of control and 108 % of control | dose: 80.0 mg/kg/injection, schedule: Q04DX003 (ip), vehicle: Klucel (hydroxypropylcellulose) (HPC) 97 % of control | dose: 100.0 mg/kg/injection, schedule: Q01DX009 (ip), vehicle: Klucel (hydroxypropylcellulose) (HPC) 101 % of control and 102 % of control | dose: 100.0 mg/kg/injection, schedule: Q04DX003 (ip), vehicle: Klucel (hydroxypropylcellulose) (HPC) 98 % of control and 101 % of control and 106 % of control | dose: 200.0 mg/kg/injection, schedule: Q04DX003 (ip), vehicle: Klucel (hydroxypropylcellulose) (HPC) 98 % of control | dose: 400.0 mg/kg/injection, schedule: Q04DX003 (ip), vehicle: Klucel (hydroxypropylcellulose) (HPC) 110 % of control

CC[N+](C)(CC)CCCOC(=O)C(c1ccccc1)c1ccccc1
inactive: dose: 6.25 mg/kg/injection, schedule: Q04DX003 (ip), vehicle: saline 94 % of control | dose: 12.5 mg/kg/injection, schedule: Q04DX003 (ip), vehicle: saline 96 % of control | dose: 25.0 mg/kg/injection, schedule: Q04DX003 (ip), vehicle: saline 96 % of control

CCOC(C(=O)N(C)CCN(C)CCc1ccccc1)(c1ccccc1)c1ccccc1
inactive: [4] 105 % of control | [5] 94 % of control

O=c1[nH]c2cc(Cl)cc(Cl)c2c2ccc(Cl)cc12
inactive: dose: 100.0 mg/kg/injection, schedule: Q01DX001 (ip), vehicle: carboxymethylcellulose (CMC) 100 % of control | dose: 200.0 mg/kg/injection, schedule: Q01DX001 (ip), vehicle: carboxymethylcellulose (CMC) 96 % of control | dose: 400.0 mg/kg/injection, schedule: Q01DX001 (ip), vehicle: carboxymethylcellulose (CMC) 89 % of control

Cc1cccc(C2=N/C(=C\c3cccc([N+](=O)[O-])c3)C(=O)O2)c1
inactive: [10] 92 % of control | [11] 92 % of control | [12] 100 % of control

CCOC(=O)Cn1c(C)cnc1C
inactive: [4] 112 % of control | [1] 96 % of control and 108 % of control | [10] 107 % of control | dose: 100.0 mg/kg/injection, schedule: Q04DX002 (ip), vehicle: saline 98 % of control | dose: 100.0 mg/kg/injection, schedule: Q04DX003 (ip), vehicle: saline 101 % of control | [5] 104 % of control | [2] 101 % of control and 91 % of control | [11] 100 % of control | dose: 200.0 mg/kg/injection, schedule: Q04DX002 (ip), vehicle: saline 113 % of control | dose: 200.0 mg/kg/injection, schedule: Q04DX003 (ip), vehicle: saline 99 % of control | [6] 98 % of control | [3] 96 % of control and 103 % of control | [12] 111 % of control | dose: 400.0 mg/kg/injection, schedule: Q04DX002 (ip), vehicle: saline 98 % of control | dose: 400.0 mg/kg/injection, schedule: Q04DX003 (ip), vehicle: saline 99 % of control

c1cc[c]([Sb]([S]c2ncnc3nc[nH]c23)[c]2ccccc2)cc1
inactive: dose: 5.0 mg/kg/injection, schedule: Q01DX001 (ip), vehicle: other 97 % of control | dose: 10.0 mg/kg/injection, schedule: Q01DX001 (ip), vehicle: other 116 % of control

Cc1cc(NC(=O)Nc2ccccc2C)no1
inactive: [7] 89 % of control | dose: 100.0 mg/kg/injection, schedule: Q04DX003 (ip), vehicle: saline with Tween-80 97 % of control | [8] 93 % of control | dose: 200.0 mg/kg/injection, schedule: Q04DX003 (ip), vehicle: saline with Tween-80 101 % of control | [9] 91 % of control | dose: 400.0 mg/kg/injection, schedule: Q04DX003 (ip), vehicle: saline with Tween-80 97 % of control

CC1OC(O[C@H]2C[C@](O)(C(C)O)Cc3c(O)c4c(c(O)c32)C(=O)c2c(O)cccc2C4=O)CC(NC=O)C1O (stereo partly specified)
inactive: dose: 0.05 mg/kg/injection, schedule: Q01DX009 (ip), vehicle: saline 116 % of control | dose: 0.1 mg/kg/injection, schedule: Q01DX001 (ip), vehicle: saline 105 % of control | dose: 0.1 mg/kg/injection, schedule: Q03DX003 (ip), vehicle: saline 112 % of control | dose: 0.2 mg/kg/injection, schedule: Q01DX001 (ip), vehicle: saline 116 % of control | dose: 0.2 mg/kg/injection, schedule: Q03DX003 (ip), vehicle: saline 119 % of control | dose: 0.8 mg/kg/injection, schedule: Q01DX009 (ip), vehicle: saline 119 % of control
